This is an account of results in patent publication US7998999B2, “Cyclohexyl substituted pyrrolidinones as inhibitors of 11-beta-hydroxysteroid dehydrogenase 1” (Eli Lilly and Company, priority 2006, dated 2011).

Assay [1] has as its target recombinant human 11β-HSD type 1 enzyme (Homo sapiens, UniProt P28845). Kind of assay: 11β-HSD Type 1 Enzyme Assay (NADPH fluorescence). It is filed as biochemical. The note with it: three hour incubation at room temperature, read-out: Human 11-βHSD1 IC50. Here is the method:
11β-HSD Type 1 Enzyme Assay
Human 11β-HSD type 1 activity is measured by assaying NADPH production by fluorescence assay. Solid compounds are dissolved in DMSO to a concentration of 10 mM. Twenty microliters of each are then transferred to a column of a 96-well polypropylene Nunc plate where they are further diluted 50-fold followed by subsequent two-fold titration, ten times across the plate with additional DMSO using a Tecan Genesis 200 automated system. Plates are then transferred to a Tecan Freedom 200 system with an attached Tecan Temo 96-well head and an Ultra 384 plate reader. Reagents are supplied in 96-well polypropylene Nunc plates and are dispensed individually into black 96-well Molecular Devices High Efficiency assay plates (40 μL/well capacity) in the following fashion: 9 μL/well of substrate (2.22 mM NADP, 55.5 μM Cortisol, 10 mM Tris, 0.25% Prionex, 0.1% Triton ×100), 3 μL/well of water to compound wells or 3 μL to control and standard wells, 6 μL/well recombinant human 11β-HSD type 1 enzyme, 2 μL/well of compound dilutions. For ultimate calculation of percent inhibition, a series of wells are added that represent assay minimum and maximum: one set containing substrate with 667 μM carbenoxolone (background), and another set containing substrate and enzyme without compound (maximum signal). Final DMSO concentration is 0.5% for all compounds, controls and standards. Plates are then placed on a shaker by the robotic arm of the Tecan for 15 seconds before being covered and stacked for a three hour incubation period at room temperature. Upon completion of this incubation, the Tecan robotic arm removes each plate individually from the stacker and places them in position for addition of 5 μL/well of a 250 μM carbenoxolone solution to stop the enzymatic reaction. Plates are then shaken once more for 15 seconds then placed into an Ultra 384 microplate reader (355EX/460EM) for detection of NADPH fluorescence.

The target in assay [2] is T1, 11β-HSD1 in primary human aortic smooth muscle cells (AoSMC) (Homo sapiens, UniProt P28845).
T1 construct: containing 12 ng/mL hTNFα to induce expression of 11β-HSD1; endogenous in cells; host or cells: primary human aortic smooth muscle cells (AoSMC), induced with hTNFα
Kind of assay: Human Aortic Smooth Muscle Cell Assay (cortisone to cortisol conversion). The assay is classed as cell-based. The note with it: AoSMC induced with hTNFα, 10 μM cortisone, cortisol by time resolved immunoassay. As for the experimental part:
Human Aortic Smooth Muscle Cell Assay
Primary human aortic smooth muscle cells (AoSMC) are cultured in 5% FBS growth medium to a passage number of 6, then pelleted by centrifugation and resuspended at a density of 9×10^4 cells/mL in 0.5% FBS assay medium containing 12 ng/mL hTNFα to induce expression of 11β-HSD1. Cells are seeded into 96-well tissue culture assay plates at 100 μL/well (9×10^3 cells/well) and incubated for 48 hours at 37° C., 5% CO2. Following induction, cells are incubated for 4 hours at 37° C., 5% CO2 in assay medium containing test compounds then treated with 10 μL/well of 10 μM cortisone solubilized in assay medium, and incubated for 16 hours at 37° C., 5% CO2. Medium from each well is transferred to a plate for subsequent analysis of cortisol using a competitive fluorescence resonance time resolved immunoassay. In solution, an allophycocyanin (APC)-cortisol conjugate and free cortisol analyte compete for binding to a mouse anti-cortisol antibody/Europium (Eu)-anti mouse IgG complex. Higher levels of free cortisol result in diminishing energy transfer from the Europium-IgG to the APC-cortisol complex resulting in less APC fluorescence. Fluorescent intensities for Europium and APC are measured using a LJL Analyst AD. Europium and APC excitation is measured using 360 nm excitation and 615 nm and 650 nm emission filters respectively. Time resolved parameters for Europium were 1000 μs integration time with a 200 μs delay. APC parameters are set at 150 μs integration time with a 50 μs delay. Fluorescent intensities measured for APC are modified by dividing by the Eu fluorescence (APC/Eu). This ratio is then used to determine the unknown cortisol concentration by interpolation using a cortisol standard curve fitted with a 4-parameter logistic equation. These concentrations are then used to determine compound activity by plotting concentration versus % inhibition, fitting with a 4-parameter curve and reporting the IC50.

T1 sequence (P28845 whole entry): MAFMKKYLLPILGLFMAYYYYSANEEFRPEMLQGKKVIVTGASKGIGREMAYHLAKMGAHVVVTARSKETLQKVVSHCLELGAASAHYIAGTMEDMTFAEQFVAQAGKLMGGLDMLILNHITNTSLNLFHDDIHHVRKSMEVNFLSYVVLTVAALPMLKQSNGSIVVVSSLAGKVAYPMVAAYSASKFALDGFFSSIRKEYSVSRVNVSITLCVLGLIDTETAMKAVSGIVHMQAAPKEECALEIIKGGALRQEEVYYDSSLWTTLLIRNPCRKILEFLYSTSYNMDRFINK
Chain of recombinant human 11β-HSD type 1 enzyme (P28845 whole entry): as above

For “3-(4-Bromo-2-chloro-benzyl)-trans-1-(4-fluoro-cyclohexyl)-pyrrolidin-2-one [Example 10]”, the figures for the IC50 in assay [1] and in assay [2] were 250 nM and 33 nM, respectively.
For the compound `O=C1[C@H](Cc2c(Cl)cc(-c3ccc(F)cc3)cc2Cl)CCN1C1CCC(F)(F)CC1` [Example 3, (R)-3-(3,5-Dichloro-4′-fluoro-biphenyl-4-ylmethyl)-1-(4,4-difluoro-cyclohexyl)-pyrrolidin-2-one], the IC50 turned out to be 364 nM in assay [1] and 9.6 nM in assay [2].
As for `Cn1cc(-c2cc(Cl)c(C[C@@H]3CCN(C4CCC(F)(F)CC4)C3=O)c(Cl)c2)cn1` [Example 6, (R)-3-[2,6-Dichloro-4-(1-methyl-1H-pyrazol-4-yl)-benzyl]-1-(4,4-difluoro-cyclohexyl)-pyrrolidin-2-one], the values for the IC50 in assay [1] and in assay [2] were 302 nM and 9.1 nM, respectively.
On the same counts, the results for `O=C1C(Cc2ccc(Br)cc2Cl)CCN1[C@H]1CC[C@@H](F)CC1` (stereo partly drawn) [Example 11, 3-(4-Bromo-2-chloro-benzyl)-cis-1-(4-fluoro-cyclohexyl)-pyrrolidin-2-one] are 446 nM and 7.5 nM.
As for `O=C1C(Cc2c(Cl)cc(-c3cccnc3)cc2Cl)CCN1[C@H]1CC[C@@H](F)CC1` (stereo partly drawn) [Example 12, 3-(2,6-Dichloro-4-pyridin-3-yl-benzyl)-cis-1-(4-fluoro-cyclohexyl)-pyrrolidin-2-one], the IC50 in assay [1] is 260 nM; in assay [2] it was 3.9 nM.
